Measured values as given in patent US20060160777A1, “New use of GABAbeta receptor agonists” (priority 2004, published 2006).
Where two headings read alike, the source gives them in different places.

What was measured:
[1] = tested on: citric acid-induced cough in conscious guinea pigs; assay: Citric acid-induced cough in conscious guinea pigs, GABAB agonists given subcutaneously; type: in vivo, guinea pig
Source text: Citric acid-induced cough was evoked in conscious guinea pigs. Male Hartley guinea pigs (300-400 g) were placed in a chamber with a continuous flow of air. Positive and negative pressure changes within the chamber were used to monitor the expiratory and inspiratory phases of respiration. A nebuliser was connected in series with the air pump, allowing aerosol delivery of citric acid (0.1-1 M).
Cough was defined based on the visual appearance of the respiratory manoeuvre, the characteristic sound, and by a signature pressure trace typified by an expiratory effort that produced a positive chamber pressure 10-20 times higher than that associated with tidal breathing and proceeded by a rapid and pronounced inspiratory effort. All data were recorded digitally. The total number of coughs and the estimated concentration of citric acid evoking 1, 2 and 5 coughs were determined for each experiment.
(§1) Four treatment groups were employed in this study: Vehicle control, baclofen, (2R)-(3-amino-2-fluoropropyl) phosphinic acid and (3-aminopropyl) phosphinic acid (3-APPiA). […] […] To assess CNS depressant effects of these compounds, their effects on respiratory rate and respiratory pattern (inspiratory and expiratory times) were assessed and compared to control.

conscious guinea pigs = assay: Effects of subcutaneously administered GABAB agonists on baseline respiratory rate in conscious guinea pigs; conditions: placebo 96.2 ± 3.8
Method: as §1
B. Effects of Subcutaneously Administered GABAB Agonists on Baseline Respiratory Rate in Conscious Guinea Pigs

[2] = Pharmacokinetics in female dogs after single intravenous and oral doses; type: in vivo, dog; conditions: for half-life / clearance / Vd: Beagle and Labrador; for Vd: read-out: Vss (volume of distribution at steady state); for F (oral availability): oral vs intravenous
Method: In the present studies dogs received single intravenous and oral doses of 3-APPiA, (2R)-(3-amino-2-fluoropropyl) phosphinic acid (A), (2S)-(3-amino-2-hydroxypropyl) phosphinic acid A), (3-amino-2-oxopropyl) phosphinic acid (C) and 3-amino-2-fluoropropyl) phosphinic acid (D) at therapeutic doses. The plasma concentrations of each compound was determined by LC-MS. The mean values of the total plasma clearance (CL), the half-life (TA), the volume of distribution at steady state (Vs), the oral availability (F), are summarised in Table 5.
Eight female Beagle and four Labrador dogs were used. The dogs were identified by a number tattooed in the ear. The animals had free access to water and were fed once a day (GLP diet) at approximately 1 p.m. On the experimental day, the dogs had not eaten since approximately 1 p.m. on the day before and were not allowed to eat until 6 hours after dosing.
The test formulations were administered intravenously in a superficial front leg vein (this vein was not used for blood sampling during 2 hours after dosing) or orally by gavage. The gavage tube was rinsed with about 20 mL of water and emptied with 20 mL of air before it was taken out. The oral and intravenous dose volumes were 1 and 0.5 mL/kg, respectively
Blood samples of about 2 mL were taken from a superficial front leg vein pre-dose and at 5, 10, 20, 40, 90 minutes, 3, 5, 8 and 24 hours after dosing. The blood samples were collected in heparinized glass tubes (Venoject®) and centrifuged (10 min, 3000 g, +4° C.). The plasma was then transferred to plastic tubes and stored at about −20° C. until analysis.
The pharmacokinetic parameters were calculated by non-compartment analysis using WinNonlin Professional (Pharsight Corporation, California, USA). The area under the plasma concentration-time curve (AUC(0-t)) was calculated using a combination of the linear and logarithmic trapezoidal rule from the time of administration to the sampling time with the last determinable plasma concentration (3, 5, 8 or 24 h). For the intravenous bolus dose, the concentration at time zero (C(0)) was estimated by log-linear regression of the first two concentration-time points. The AUC(0-t) was extrapolated to infinity by adding Ct/k. Ct was the predicted plasma concentration at the time of the last plasma sample with a determinable concentration and k was the apparent terminal rate constant. Ct and k were obtained by linear least-squares regression analysis of the logarithm of the last 3 to 5 plasma concentrations versus time. The apparent terminal half-life (t1/2) was calculated as In 2/k, wherein k is elimination constant, i.e. the slope of the decreasing curve.
The oral bioavailability (F) for each dog was calculated from individual AUC (area under the curve) and dose values. The calculation was made as follows: (AUCpo·Doseiv/AUCic·Dosepo)·100.
Estimates of total plasma clearance and of volume of distribution were calculated from plasma concentration data obtained after intravenous bolus injection. The total plasma clearance (CL) was calculated as Dosei.v./AUCi.v., and the volume of distribution at steady is state (Vss) was calculated as MRTi.v.·CL. The mean residence time after intravenous administration (MRTi.v.) was calculated as AUMC/AUC for bolus injection, wherein AUMC is the area under the first-moment versus time curve. The results are presented by descriptive statistics. The pharmacokinetic parameters are presented as geometric mean and range.

[3] = 0.3 mg/kg s.c., 30 min before challenge, citric acid 0 M, mean ± spread
[4] = 0.3 mg/kg s.c., citric acid 0.01 M
[5] = 0.3 mg/kg s.c., citric acid 0.1 M
[6] = 0.3 mg/kg s.c., citric acid 0.3 M
[7] = 0.3 mg/kg s.c., citric acid 1 M
[8] = 3 mg/kg s.c., citric acid 0.01 M
[9] = 3 mg/kg s.c., citric acid 0.1 M
[10] = 3 mg/kg s.c., citric acid 0.3 M
[11] = dog, in vivo, female dogs, geometric mean, dose 2-7 μmol/kg per compound, read-out: T1/2 (half-life) (converted)
[12] = dog, in vivo, female dogs, intravenous bolus, geometric mean, dose 2-7 μmol/kg per compound, read-out: CL (total plasma clearance)
[13] = dog, in vivo, female dogs, intravenous bolus, geometric mean, dose 2-7 μmol/kg per compound
[14] = female dogs, geometric mean, dose 2-7 μmol/kg per compound

Row | Compound | Cumulative number of coughs evoked by citric acid [1, 3] | Cumulative number of coughs evoked by citric acid [1, 4] | Cumulative number of coughs evoked by citric acid [1, 5] | Cumulative number of coughs evoked by citric acid [1, 6] | Cumulative number of coughs evoked by citric acid [1, 7] | Cumulative number of coughs evoked by citric acid ([1]; 3 mg/kg s.c., citric acid 0 M) | Cumulative number of coughs evoked by citric acid [1, 8] | Cumulative number of coughs evoked by citric acid [1, 9] | Cumulative number of coughs evoked by citric acid [1, 10] | Cumulative number of coughs evoked by citric acid ([1]; 3 mg/kg s.c., citric acid 1 M) | Baseline respiratory rate (result of study B, mean) (conscious guinea pigs; 0.3 mg/kg s.c.) | half-life [2, 11] | clearance [2, 12] | Vd [2, 13] | F (oral availability) [2, 14] | further results
1 | NCCC[PH](=O)O [Compound 3-APPiA, (3-aminopropyl) phosphinic acid] | 0 ± 0 | 0 ± 0 | 0.2 ± 0.2 | 7.8 ± 3.0 | 28.8 ± 2.9 | 0 ± 0 | 0 ± 0 | 1.7 ± 0.9 | 3.9 ± 1.6 | 16.1 ± 5.2 | 93.0 ± 5.6 | 0.52 h | 20 mL/min/kg | 0.55 L/kg | 10% | Baseline respiratory rate (result of study B, mean) (conscious guinea pigs; 3 mg/kg s.c.): 97.9 ± 4.2
2 | NCC(=O)C[PH](=O)O [C, (3-amino-2-oxopropyl) phosphinic acid] |  |  |  |  |  |  |  |  |  |  |  | 2.5 h | 8.2 mL/min/kg | 0.74 L/kg | 60% | 
3 | NC[C@H](O)C[PH](=O)O [B, (2S)-(3-amino-2-hydroxypropyl) phosphinic acid] |  |  |  |  |  |  |  |  |  |  |  | 0.5 h | 6.67 mL/min/kg | 0.25 L/kg | 86% | 
4 | CP(=O)(O)CCCN [SKF97541, (3-aminopropyl)methyl phosphinic acid] | 0 ± 0 | 0 ± 0 | 0.4 ± 0.2 | 3.8 ± 1.6 | 19.2 ± 5.8 |  |  |  |  |  | 68.6 ± 6.0 |  |  |  |  | Baseline respiratory rate (result of study B, mean) (conscious guinea pigs; 0.1 mg/kg s.c.): 79.2 ± 16.5
5 | NCC(F)C[PH](=O)O (stereo not drawn) [D] |  |  |  |  |  |  |  |  |  |  |  |  |  |  |  | T1/2 (half-life) ([2]; dog, in vivo): 8.2 h; CL (total plasma clearance) ([2]; dog, in vivo, iv): 5.2 mL/min/kg; Vss (volume of distribution at steady state) ([2]; dog, in vivo, iv): 2.3 L/kg
6 | NC[C@@H](F)C[PH](=O)O [A, (2R)-(3-amino-2-fluoropropyl) phosphinic acid] | 0 ± 0 | 0 ± 0 | 3.4 ± 1.1 | 11.4 ± 1.3 | 27.6 ± 3.7 | 0 ± 0 | 0.1 ± 0.1 | 1.9 ± 1.1 | 9.0 ± 3.8 | 15.4 ± 3.6 |  |  |  |  |  | Cumulative number of coughs evoked by citric acid ([1]; 10 mg/kg s.c., citric acid 0 M): 0 ± 0; Cumulative number of coughs evoked by citric acid ([1]; 10 mg/kg s.c., citric acid 0.01 M): 0 ± 0; Cumulative number of coughs evoked by citric acid ([1]; 10 mg/kg s.c., citric acid 0.1 M): 0.6 ± 0.3; Cumulative number of coughs evoked by citric acid ([1]; 10 mg/kg s.c., citric acid 0.3 M): 3.8 ± 1.3; Cumulative number of coughs evoked by citric acid ([1]; 10 mg/kg s.c., citric acid 1 M): 9.7 ± 1.9; half-life ([2]; female, dog, in vivo): 7.5 h; clearance ([2]; female, dog, in vivo, iv): 2.1 mL/min/kg
7 | NCC(CC(=O)O)c1ccc(Cl)cc1 (stereo not drawn) [Baclofen, 4-amino-3-(chlorophenyl)butanoic acid] | 0 ± 0 | 1.0 ± 0 | 3.0 ± 0.6 | 12.3 ± 7.4 | 25.7 ± 4.8 | 0 ± 0 | 0 ± 0 | 1.0 ± 0.5 | 6.0 ± 1.9 | 14.3 ± 3.8 | 96.8 ± 8.5 |  |  |  |  | Baseline respiratory rate (result of study B, mean) (conscious guinea pigs; 3 mg/kg s.c.): 78.1 ± 17.6
